Reference: ChEMBL document CHEMBL1155642, “In vitro antiplasmodial, antiamoebic, and cytotoxic activities of some monomeric isoquinoline alkaloids” (J Nat Prod, 2000)
Counter-ions that a name gives are not always drawn. Activity calls are given as the source filed them. The calls are words filed in the database; no cut-off is given here.

Assays:
Plasmodium falciparum = experiment: Antiplasmodial activity against multi drug-resistant Plasmodium falciparum K1 in erythrocytes by [3H]hypoxanthine uptake; format: functional, organism-based
Entamoeba histolytica [1] = experiment: Antiamoebic activity against Entamoeba histolytica NIH 200 after 72 hrs by microdilution technique; format: functional, organism-based; settings: NIH 200, 72 h
KB = experiment: Cytotoxicity against human KB cells after 72 hrs; format: functional, cell-based
Entamoeba histolytica [2] = experiment: Antiamoebic activity against Entamoeba histolytica NIH 200 in guinea pig at 2 mg/kg, iv; format: functional, organism-based; parameters: dose 2 mg/kg
Entamoeba histolytica [3] = experiment: Antiamoebic activity against Entamoeba histolytica NIH 200 in guinea pig at 3 mg/kg, po; format: functional, organism-based; parameters: dose 3 mg/kg

Structure (SMILES) | IC50 (Plasmodium falciparum) [µM] | IC50 (Entamoeba histolytica [1]) [µM] | IC50 (KB) [µM] | Activity (Entamoeba histolytica [2]) | Activity (Entamoeba histolytica [3])
COc1cc2c(cc1OC)-c1c3c(c(OC)c4c1[C@H](C2)N(C)CC4)OCO3 [OCOTEINE] | 34.8 | 51.2 | 74.3 |  | 
COc1ccc2c(c1OC)-c1c(OC)c(OC)cc3c1[C@H](C2)NCC3 [CATALPIFOLINE] | 24.1 | 147 | > 733 |  | 
COc1cc2cc3c4c(c(OC)c5c(c4c2cc1OC)OCO5)CCN3C [DEHYDROOCOTEINE] | 5.78 | 136 | > 341 |  | 
COc1cc2c(cc1O)CC[n+]1cc3cc(OC)c(OC)cc3cc1-2 [DEHYDRODISCRETINE CHLORIDE] | 0.639 | 66.9 | > 335 |  | 
COc1ccc2c(c1O)-c1c(O)c(OC)cc3c1[C@H](C2)[N+](C)(C)CC3 [MAGNOFLORINE IODIDE] | > 107 | 111 | > 533 |  | 
COc1ccc2cc3[n+](cc2c1OC)CCc1cc2c(cc1-3)OCO2 [BERBERINE CHLORIDE] | 0.968 | 111 | 7.32 | Active | Active
COc1ccc2c(c1OC)[C@]13CCC(=O)[C@]4(O)O[C@H]2C[C@]14N(C)CC3 [METAPHANINE HYDROBROMIDE] | > 117 | 58.6 | > 586 |  | 
COc1cc2c(cc1O)CC[n+]1cc3c(OC)c(OC)ccc3cc1-2 [JATRORRHIZINE CHLORIDE] | 3.15 | 82.7 | > 335 |  | 
COc1cc2c(cc1O)-c1cc3ccc(OC)c(OC)c3c[n+]1CC2 [COLUMBAMINE CHLORIDE] | 1.92 | 156 | 77.9 |  | 
CC[C@H]1CN2CCc3cc(OC)c(OC)cc3[C@@H]2C[C@@H]1C[C@H]1NCCc2cc(OC)c(OC)cc21 [EMETINE HYDROCHLORIDE] |  | 2.23 |  |  | 
COc1cc([C@@H]2c3cc4c(cc3[C@H](O)[C@H]3COC(=O)[C@H]23)OCO4)cc(OC)c1OC [PODOFILOX] |  |  | 0.008 |  | 
COc1cc2c3c(c1O)-c1c(ccc(OC)c1OC)C[C@@H]3N(C)CC2 [CORYDINE] | 22.3 | 90.6 | > 733 |  | 
COC1=C[C@@H]2[C@@H]3Cc4ccc(OC)c(O)c4[C@]2(CCN3C)CC1=O [SINOMENINE] | > 152 | 56.2 | > 759 |  | 
COc1ccc2c(c1O)-c1c(OC)c(OC)cc3c1[C@H](C2)N(C)CC3 [ISOCORYDINE] | 37 | > 147 | > 733 |  | 
COc1c(O)ccc2cc3[n+](cc12)CCc1cc2c(cc1-3)OCO2 [THALIFENDINE] | 7.91 | 116 | > 699 |  | 
COc1ccc2c(c1OC)CN(C)CCc1cc3c(cc1C(=O)C2)OCO3 [ALLOCRYPTOPINE] | 5.08 | 135 | > 338 |  | 
COc1cc2c3c(c1O)-c1c(ccc(OC)c1OC)C[C@@H]3NCC2 [NORCORYDINE] | 3.08 | 76.4 | > 733 |  | 
COc1cc2c(cc1OC)-c1c3c(c(OC)c4ccnc(c14)C2=O)OCO3 [THALICMININE] | 16.2 | 75.1 | > 685 |  | 
COC1=C[C@]23CCN(C)[C@H](Cc4cc(OC)c(OC)cc42)C3=CC1=O [O-METHYLFLAVINANTINE] | 207 | 73.4 | > 734 |  | 
COC1=C[C@]23CCN(C)[C@H](Cc4ccc(OC)c(O)c42)C3=CC1=O [SALUTARIDINE] | > 95 | 76.4 | > 764 |  | 
COc1ccc2c(c1OC)CN1CCc3cc4c(cc3[C@@H]1C2)OCO4 [CANADINE] | > 147 | 126 | > 734 |  | 
